Values of other authors in US8859603B2, “Method for solubilizing metronidazole” (Galderma S.A., priority 2004, dated 2014).

Conditions: no solubilizer

intrinsic solubility of metronidazole in an aqueous phase: ~0.9 % (m/m)
Compound: Cc1ncc([N+](=O)[O-])n1CCO [metronidazole, 1-(2-hydroxyethyl)-2-methyl-5-nitroimidazole]
